One may read the EC50 as the concentration that produces a half-maximal response.

Structures are written as SMILES.

Data on 29 compounds can be found in patent publication US20230348426A1, “OXOPYRROLIDINE FPR2 AGONISTS” (Bristol-Myers Squibb Company, priority 2020, published 2023).

For one experiment, the target named is human FPR2 (Homo sapiens (Human), UniProt P25090). Nature of the experiment: FPR2 cyclic adenosine monophosphate (cAMP) assay. It is filed as cell-based. Conditions: CHO cells overexpressing human FPR2; forskolin 5 µM; inhibition of cAMP production; read-out: hFPR2 cAMP2 EC50. The gist of the method:
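Inhibition of forskolin-driven (5 µM) cAMP, with 200 µM IBMX, measured in human FPR2-expressing CHO cells, 2,000 per well, 30 min at room temperature; compounds tested 0.020 nM to 100 µM in 1% DMSO. HTRF 665/590 ratio converted to cAMP via calibration curve, then 4-parameter fit.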
For orientation: Changes in cAMP serve as a functional read-out for many G protein-coupled receptors.

The next experiment concerns the target human FPR1 (Homo sapiens (Human), UniProt P21462). In words: FPR1 cyclic adenosine monophosphate (cAMP) assay. Format: cell-based. Conditions: CHO cells overexpressing human FPR1; forskolin 10 µM; inhibition of cAMP production; read-out: hFPR1 cAMP EC50. In outline:
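Human FPR1-expressing CHO cells were used at 4,000 per well, with compound at 0.020 nM–100 µM in 1% DMSO. Potency came from a 4-parameter logistic fit.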

Chain of human FPR2 (P25090 whole entry): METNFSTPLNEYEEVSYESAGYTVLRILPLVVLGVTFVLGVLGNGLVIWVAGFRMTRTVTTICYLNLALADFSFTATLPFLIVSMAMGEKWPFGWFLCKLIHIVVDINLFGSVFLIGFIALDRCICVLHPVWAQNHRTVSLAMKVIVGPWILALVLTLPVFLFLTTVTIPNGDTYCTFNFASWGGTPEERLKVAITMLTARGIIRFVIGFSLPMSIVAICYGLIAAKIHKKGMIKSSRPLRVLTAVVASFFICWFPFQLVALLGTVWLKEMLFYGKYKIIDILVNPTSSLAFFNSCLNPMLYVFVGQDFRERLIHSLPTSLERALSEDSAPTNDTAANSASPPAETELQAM
Chain of human FPR1 (P21462 whole entry): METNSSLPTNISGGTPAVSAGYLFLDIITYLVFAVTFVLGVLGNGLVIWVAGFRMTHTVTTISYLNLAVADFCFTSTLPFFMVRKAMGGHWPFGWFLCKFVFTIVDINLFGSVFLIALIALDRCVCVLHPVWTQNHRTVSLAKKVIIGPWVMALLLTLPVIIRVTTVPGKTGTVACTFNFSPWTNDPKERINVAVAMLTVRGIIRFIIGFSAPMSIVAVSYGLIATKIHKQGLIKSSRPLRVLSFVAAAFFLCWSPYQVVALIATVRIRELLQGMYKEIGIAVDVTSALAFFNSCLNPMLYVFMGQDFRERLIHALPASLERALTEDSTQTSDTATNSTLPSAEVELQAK

`COc1ccc([C@@H]2CN(c3ccnn(CC(F)F)c3=O)C(=O)[C@H]2NC(=O)c2ccc(Cl)cc2)cc1` [Example 690]: the EC50 on human FPR2 worked out at 11 nM; at human FPR1, 24 nM.
Turning to `COc1ccc([C@@H]2CN(c3ccnn(CC(F)F)c3=O)C(=O)[C@H]2NC(=O)c2ccc(OC(F)F)cc2)cc1` [Example 691], the EC50 on human FPR2 and on human FPR1 was 11 nM throughout.
Consider `COc1ccc([C@@H]2CN(c3ccnn(CC(F)F)c3=O)C(=O)[C@H]2NC(=O)c2ccc(OC(F)(F)F)cc2)cc1` [Example 692], for which the EC50 on human FPR2 is 3.8 nM; at human FPR1 it was 2.8 nM.
In the same order, the values of `COc1cc(F)c([C@@H]2CN(c3c(C)ccn(CC4CCOC4)c3=O)C(=O)[C@H]2NC(=O)c2ccc(OC(F)F)cc2)c(F)c1` (stereo partly shown) [Example 693] are 2 nM and 2.5 nM.
In the same order, the values of `COc1cc(F)c([C@@H]2CN(c3c(C)ccn(CC4CCOC4)c3=O)C(=O)[C@H]2NC(=O)c2ccc(OC(F)F)cc2)c(F)c1` (stereo partly shown) [Example 695] are 3.5 nM and 4 nM.
`COc1ccc([C@@H]2CN(c3ccnn(CC(F)F)c3=O)C(=O)[C@H]2NC(=O)c2ccc(OC(F)(F)F)cc2)c(F)c1` [Example 696]: the values for the EC50 on human FPR2 and on human FPR1 were 7.2 nM and 8.3 nM, respectively.
With `COc1cc(F)c([C@@H]2CN(c3c(C)ccn(CC4CCOC4)c3=O)C(=O)[C@H]2NC(=O)c2ccc(OC(F)(F)F)cc2)c(F)c1` (stereo partly shown) [Example 697], the half-maximal effective concentration (EC50) at human FPR2 was 3.6 nM; at human FPR1, 6.7 nM.
Turning to `COc1ccc([C@@H]2CN(c3c(C)ccn(CC4CCOCC4)c3=O)C(=O)[C@H]2NC(=O)c2ccc(OC(F)F)cc2)c(F)c1` [Example 698], the values for the EC50 at human FPR2 and at human FPR1 were 5.7 nM and 2.5 nM, respectively.
In the case of `COc1ccc([C@@H]2CN(c3c(C)ccn(CC4CCOCC4)c3=O)C(=O)[C@H]2NC(=O)c2ccc(OC(F)F)cc2)cc1` [Example 699], the EC50 at human FPR2 amounted to 6.6 nM; at human FPR1 it was 3 nM.
Consider `COc1ccc([C@@H]2CN(c3c(C)ccn(CC4CCOCC4)c3=O)C(=O)[C@H]2NC(=O)c2ccc(OC(F)(F)F)cc2)cc1` [Example 700], for which the EC50 at human FPR2 was determined as 3 nM; on human FPR1 it was 0.67 nM.
In the same order, the values of `COc1cc(F)c([C@@H]2CN(c3c(C)ccn(C4CCS(=O)(=O)C4)c3=O)C(=O)[C@H]2NC(=O)c2ccc(OC(F)F)cc2)c(F)c1` (stereo partly shown) [Example 701] are 12 nM and 27 nM.
In the same order, the values of `COc1cc(F)c([C@@H]2CN(c3c(C)ccn(C4CCS(=O)(=O)C4)c3=O)C(=O)[C@H]2NC(=O)c2ccc(OC(F)(F)F)cc2)c(F)c1` (stereo partly shown) [Example 702] are 8.5 nM and 7.5 nM.
As for `COc1cc(F)c([C@@H]2CN(c3ccc(C(=O)O)n(CCO)c3=O)C(=O)[C@H]2NC(=O)c2ccc(OC(F)(F)F)cc2)c(F)c1` [Example 703], the concentration giving a half-maximal response (EC50) on human FPR2 stood at 57 nM; on human FPR1, 99 nM.
In the same order, the values of `COc1ccc([C@@H]2CN(c3c(C)ccn(C4CCOC4)c3=O)C(=O)[C@H]2NC(=O)c2ccc(OC(F)(F)F)cc2)cc1` (stereo partly shown) [Example 704] are 2.4 nM and 1 nM.
`COCC(CO)n1cccc(N2C[C@@H](c3ccc(OC)cc3F)[C@H](NC(=O)c3ccc(OC(F)(F)F)cc3)C2=O)c1=O` (stereo partly shown) [Example 705]: the EC50 turned out to be 0.6 nM on human FPR2 and 3.9 nM on human FPR1.
Consider `COc1cc(F)c([C@@H]2CN(c3c(C)ccn(C(CO)C(F)(F)F)c3=O)C(=O)[C@H]2NC(=O)c2ccc(OC(F)F)cc2)c(F)c1` (stereo partly shown) [Example 706], for which the EC50 on human FPR2 was determined as 9.4 nM; at human FPR1, 19 nM.
With `COc1cc(F)c([C@@H]2CN(c3c(C)ccn(C(CO)C(F)(F)F)c3=O)C(=O)[C@H]2NC(=O)c2ccc(OC(F)F)cc2)c(F)c1` (stereo partly shown) [Example 707], the EC50 at human FPR2 came to 5.4 nM; at human FPR1, 130 nM.
In the same order, the values of `COc1cc(F)c([C@@H]2CN(c3nccc(OC4CCOC4)c3C(F)(F)F)C(=O)[C@H]2NC(=O)c2ccc(Cl)cc2)c(F)c1` (stereo partly shown) [Example 708] are 11 nM and greater than 1000 nM.
As for `COc1cc(F)c([C@@H]2CN(c3nccc(OC4CCOC4)c3C(F)(F)F)C(=O)[C@H]2NC(=O)c2ccc(Cl)cc2)c(F)c1` (stereo partly shown) [Example 709], the EC50 was 14 nM on human FPR2 and 210 nM on human FPR1.
In the same order, the values of `COc1cc(F)c([C@@H]2CN(c3cncn(C4CCNC4)c3=O)C(=O)[C@H]2NC(=O)c2ccc(Cl)cc2)c(F)c1` (stereo partly shown) [Example 710] are 4 nM and 490 nM.
On to `COc1cc(C2CCN(CCF)CC2)nc(N2C(=O)[C@@H](NC(=O)c3ccc(OC(F)F)cc3)[C@H](c3c(F)cc(OC)cc3F)[C@@H]2C)c1` [Example 711], for which the EC50 was found to be 4.2 nM at human FPR2 and 3400 nM on human FPR1.
In the same order, the values of `COc1cc(F)c([C@@H]2CN(c3cncn(C4CCN(C)C4)c3=O)C(=O)[C@H]2NC(=O)c2ccc(Cl)cc2)c(F)c1` (stereo partly shown) [Example 713] are 4 nM and greater than 5000 nM.
For the compound `COc1cc(F)c([C@@H]2CN(c3cncn(C4CCNC4)c3=O)C(=O)[C@H]2NC(=O)c2ccc(Cl)cc2)c(F)c1` (stereo partly shown) [Example 714], the EC50 at human FPR2 is 6.4 nM; on human FPR1 it was 3600 nM.
`COc1cc(F)c([C@@H]2CN(c3cc(C)cc(C4CCN(CCO)CC4)n3)C(=O)[C@H]2NC(=O)c2ccc(OC(F)F)cc2)c(F)c1` [Example 715]: the values for the EC50 at human FPR2 and on human FPR1 were 5.5 nM and greater than 5000 nM, respectively.
As to `COc1cc(F)c([C@@H]2CN(c3cc(C)cc(C4CCNCC4)n3)C(=O)[C@H]2NC(=O)c2ccc(OC(F)F)cc2)c(F)c1` [Example 716], the EC50 on human FPR2 was 5.7 nM; at human FPR1, greater than 5000 nM.
In the same order, the values of `COc1cc(F)c([C@@H]2CN(c3cccc(C4CCCNC4)n3)C(=O)[C@H]2NC(=O)c2ccc(OC(F)F)cc2)c(F)c1` (stereo partly shown) [Example 718] are 0.9 nM and 840 nM.
In the same order, the values of `COc1cc(F)c([C@@H]2CN(c3cccc(C4CCCNC4)n3)C(=O)[C@H]2NC(=O)c2ccc(OC(F)F)cc2)c(F)c1` (stereo partly shown) [Example 719] are 1.4 nM and 1900 nM.
In the same order, the values of `COc1cc(C2CCN(CC(C)(C)O)CC2)nc(N2C[C@@H](c3c(F)cc(OC)cc3F)[C@H](NC(=O)c3ccc(OC(F)F)cc3)C2=O)c1` [Example 720] are 3.9 nM and greater than 5000 nM.
Regarding `COc1cc(F)c([C@@H]2CN(c3cncn(C4CCN(C)C4)c3=O)C(=O)[C@H]2NC(=O)c2ccc(Cl)cc2)c(F)c1` (stereo partly shown) [Example 721], the EC50 at human FPR2 was 5.6 nM; at human FPR1, greater than 5000 nM.
